Assays:
[1] = system: normal skeletal muscle cells; test: RT-PCR of cancer testis antigens in transduced normal skeletal muscle cells; assay type: cell-based, human; settings: RT-PCR vs lenti-GFP
Source text: The results were normalized to an internal control standard of either 18S or GAPDH.

Human myoblasts = test: Expression array of the innate immune response to lentiviral infection versus uninfected cells; assay type: cell-based
Protocol: RNA was harvested from the lenti-viral infected cells and uninfected control cells at 24 hours after infection.

DUX4-fl: full-length DUX4 protein (SEQ ID NO:110), expressed from lentiviral or pCS2 vectors or in vitro translated
induction of cancer testis antigens BAGE, MAGEA4, MAGEA9, SSX1, SSX2, SSX4 and a PRAME family member [1]: over 2 fold | induction of viral RNA sensors LGP2 (DHX58), IFIH1 (MDA5), DDX58 (RIG-1) (Human myoblasts): suppresses the induction of the three primary sensors of viral RNA | number of the 341 genes induced within 50% of the level of induction by lenti-GFP (Human myoblasts): 24 genes | share of lentivirus-induced genes whose induction is suppressed (Human myoblasts; 317 out of 341): 93% | DEFB103A and DEFB103B transcripts (Human myoblasts; expression array): activated | CCL2 expression ratio vs GFP (.fc) (Human myoblasts; gene CCL2 NM_002982.3, vs lenti-GFP, 24 hours after infection): −2.68 log2 fold change | CCL2 expression ratio vs NoLenti (.fc) (Human myoblasts; gene CCL2 NM_002982.3, vs uninfected, 24 hours after infection): 0.01 log2 fold change | CCL5 expression ratio vs GFP (.fc) (Human myoblasts; gene CCL5 NM_002985.2, vs lenti-GFP, 24 hours after infection): −2.53 log2 fold change | CCL5 expression ratio vs NoLenti (.fc) (Human myoblasts; gene CCL5 NM_002985.2, vs uninfected, 24 hours after infection): 0.22 log2 fold change | CXCL1 expression ratio vs GFP (.fc) (Human myoblasts; gene CXCL1 NM_001511.1, vs lenti-GFP, 24 hours after infection): −3.52 log2 fold change | CXCL1 expression ratio vs NoLenti (.fc) (Human myoblasts; gene CXCL1 NM_001511.1, vs uninfected, 24 hours after infection): −0.04 log2 fold change | CXCL2 expression ratio vs GFP (.fc) (Human myoblasts; gene CXCL2 NM_002089.3, vs lenti-GFP, 24 hours after infection): −1.34 log2 fold change | CXCL2 expression ratio vs NoLenti (.fc) (Human myoblasts; gene CXCL2 NM_002089.3, vs uninfected, 24 hours after infection): −0.04 log2 fold change | CXCL5 expression ratio vs GFP (.fc) (Human myoblasts; gene CXCL5 NM_002994.3, vs lenti-GFP, 24 hours after infection): −2.47 log2 fold change | CXCL5 expression ratio vs NoLenti (.fc) (Human myoblasts; gene CXCL5 NM_002994.3, vs uninfected, 24 hours after infection): −0.37 log2 fold change | CXCL6 expression ratio vs GFP (.fc) (Human myoblasts; gene CXCL6 NM_002993.2, vs lenti-GFP, 24 hours after infection): −1.99 log2 fold change | CXCL6 expression ratio vs NoLenti (.fc) (Human myoblasts; gene CXCL6 NM_002993.2, vs uninfected, 24 hours after infection): −0.10 log2 fold change | DDX58 expression ratio vs GFP (.fc) (Human myoblasts; gene DDX58 NM_014314.3, vs lenti-GFP, 24 hours after infection): −2.47 log2 fold change | DDX58 expression ratio vs NoLenti (.fc) (Human myoblasts; gene DDX58 NM_014314.3, vs uninfected, 24 hours after infection): −0.18 log2 fold change | DHX58 (LGP2) expression ratio vs GFP (.fc) (Human myoblasts; gene DHX58 NM_024119.2, vs lenti-GFP, 24 hours after infection): −2.84 log2 fold change | DHX58 (LGP2) expression ratio vs NoLenti (.fc) (Human myoblasts; gene DHX58 NM_024119.2, vs uninfected, 24 hours after infection): −0.17 log2 fold change | IFI6 expression ratio vs GFP (.fc) (Human myoblasts; gene IFI6 NM_022872.2, vs lenti-GFP, 24 hours after infection): −4.24 log2 fold change | IFI6 expression ratio vs NoLenti (.fc) (Human myoblasts; gene IFI6 NM_022872.2, vs uninfected, 24 hours after infection): 0.82 log2 fold change | IFI16 expression ratio vs GFP (.fc) (Human myoblasts; gene IFI16 NM_005531.1, vs lenti-GFP, 24 hours after infection): −2.01 log2 fold change | IFI16 expression ratio vs NoLenti (.fc) (Human myoblasts; gene IFI16 NM_005531.1, vs uninfected, 24 hours after infection): −0.14 log2 fold change | IFI27 expression ratio vs GFP (.fc) (Human myoblasts; gene IFI27 NM_005532.3, vs lenti-GFP, 24 hours after infection): −6.53 log2 fold change | IFI27 expression ratio vs NoLenti (.fc) (Human myoblasts; gene IFI27 NM_005532.3, vs uninfected, 24 hours after infection): 0.92 log2 fold change | IFI35 expression ratio vs GFP (.fc) (Human myoblasts; gene IFI35 NM_005533.2, vs lenti-GFP, 24 hours after infection): −3.85 log2 fold change | IFI35 expression ratio vs NoLenti (.fc) (Human myoblasts; gene IFI35 NM_005533.2, vs uninfected, 24 hours after infection): −0.32 log2 fold change | IFI44L expression ratio vs GFP (.fc) (Human myoblasts; gene IFI44L NM_006820.1, vs lenti-GFP, 24 hours after infection): −5.12 log2 fold change | IFI44L expression ratio vs NoLenti (.fc) (Human myoblasts; gene IFI44L NM_006820.1, vs uninfected, 24 hours after infection): 0.74 log2 fold change | IFI44 expression ratio vs GFP (.fc) (Human myoblasts; gene IFI44 NM_006417.3, vs lenti-GFP, 24 hours after infection): −2.42 log2 fold change | IFI44 expression ratio vs NoLenti (.fc) (Human myoblasts; gene IFI44 NM_006417.3, vs uninfected, 24 hours after infection): 0.90 log2 fold change | IFIH1 (MDA5) expression ratio vs GFP (.fc) (Human myoblasts; gene IFIH1 NM_022168.2, vs lenti-GFP, 24 hours after infection): −3.70 log2 fold change | IFIH1 (MDA5) expression ratio vs NoLenti (.fc) (Human myoblasts; gene IFIH1 NM_022168.2, vs uninfected, 24 hours after infection): 0.25 log2 fold change | IFIT1 expression ratio vs GFP (.fc) (Human myoblasts; gene IFIT1 NM_001548.3, vs lenti-GFP, 24 hours after infection): −4.38 log2 fold change | IFIT1 expression ratio vs NoLenti (.fc) (Human myoblasts; gene IFIT1 NM_001548.3, vs uninfected, 24 hours after infection): 0.43 log2 fold change | IFIT3 expression ratio vs GFP (.fc) (Human myoblasts; gene IFIT3 NM_001549.2, vs lenti-GFP, 24 hours after infection): −3.86 log2 fold change | IFIT3 expression ratio vs NoLenti (.fc) (Human myoblasts; gene IFIT3 NM_001549.2, vs uninfected, 24 hours after infection): 0.04 log2 fold change | IFIT5 expression ratio vs GFP (.fc) (Human myoblasts; gene IFIT5 NM_012420.1, vs lenti-GFP, 24 hours after infection): −1.65 log2 fold change | IFIT5 expression ratio vs NoLenti (.fc) (Human myoblasts; gene IFIT5 NM_012420.1, vs uninfected, 24 hours after infection): −0.36 log2 fold change | IFITM1 expression ratio vs GFP (.fc) (Human myoblasts; gene IFITM1 NM_003641.3, vs lenti-GFP, 24 hours after infection): −6.12 log2 fold change | IFITM1 expression ratio vs NoLenti (.fc) (Human myoblasts; gene IFITM1 NM_003641.3, vs uninfected, 24 hours after infection): 0.73 log2 fold change | IFITM2 expression ratio vs GFP (.fc) (Human myoblasts; gene IFITM2 NM_006435.2, vs lenti-GFP, 24 hours after infection): −1.71 log2 fold change | IFITM2 expression ratio vs NoLenti (.fc) (Human myoblasts; gene IFITM2 NM_006435.2, vs uninfected, 24 hours after infection): −0.46 log2 fold change | IFITM3 expression ratio vs GFP (.fc) (Human myoblasts; gene IFITM3 NM_021034.2, vs lenti-GFP, 24 hours after infection): −1.95 log2 fold change | IFITM3 expression ratio vs NoLenti (.fc) (Human myoblasts; gene IFITM3 NM_021034.2, vs uninfected, 24 hours after infection): −0.01 log2 fold change

Reference: patent publication US20140242093A1, “METHODS AND COMPOSITIONS FOR MODULATING THE INNATE IMMUNE RESPONSE AND/OR MYOGENESIS IN A MAMMALIAN SUBJECT” (FRED HUTCHINSON CANCER RESEARCH CENTER, priority 2011, published 2014)
